The source of these data is the METLIN SMRT retention time set (Domingo-Almenara et al. 2019).

The structures appear in SMILES notation.

The data set in a line: gradient 5% acetonitrile 3 min, to 50% in 2 min, to 85% in 15 min, held 3 min, 100 µL/min. Conditions: column: Zorbax Extend-C18 2.1 x 50 mm; eluents: water / acetonitrile, 0.1% formic acid. In short, it runs like this: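 Using water and acetonitrile that each contained 0.1% formic acid, mixtures of ~100 pure standards were separated at 100 μL/min on a Zorbax Extend-C18 column (2.1 × 50 mm, 1.8 μm). The HPLC fed a quadrupole time-of-flight mass spectrometer working in positive and negative ionization mode, with dead and dwell volumes of 40 μL and 900 μL. Data were acquired over 3 months. Retention time was read from computationally picked adduct peaks after manual inspection of each.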
Compound `O=C1CN(S(=O)(=O)c2ccc(Cl)s2)CC2(CCCCC2)N1Cc1ccccc1` had an RP-LC retention time of 1180 s.

`O=C1C(OC2CCN(S(=O)(=O)c3ccccc3Cl)CC2)CCN1CC1CC1` (centres undefined) gave an RP-LC retention time of 870 s.

With `Cc1ccc([C@@H]2O[C@H](CO)[C@@H](O)[C@H](O)[C@H]2O)cc1Cc1ccc(-c2ccc(F)cc2)s1`, the RP-LC retention time came to 847 s.

For the compound `Cc1ccc(C)c(NC(=O)N2CCN(CCn3c(C(C)C)nc4cccnc43)CC2)c1`, the RP-LC retention time amounted to 621 s.

In the case of `CCN1C=C(C(=O)OCc2ccccc2F)C(C)=NS1(=O)=O`, the RP-LC retention time worked out at 895 s.

Consider `CN1C(=O)c2cc(C(=O)NCc3ccccc3F)nn2CC1(C)C(=O)NC1CCCCCC1` (centres undefined), for which the RP-LC retention time was 839 s.

Compound `CC1Oc2ccc(-c3csc(NC(=O)c4ccc(F)cc4)n3)cc2NC1=O` (centres undefined) registered an RP-LC retention time of 879 s.

On to `CC1Cc2ccccc2N1C(=O)C1CCN(S(=O)(=O)c2cn(C(C)C)cn2)CC1` (centres undefined), for which the RP-LC retention time came out at 779 s.

`COc1ccc(OC)c(CNC(=O)C2CCN(c3cncnc3N3CCCCC3)CC2)c1` registered an RP-LC retention time of 688 s.

Compound `O=C(NC1CC1)c1nnc(-c2ccc(S(=O)(=O)N3CCCC3)cc2)o1` showed an RP-LC retention time of 730 s.

In turn, `Cc1cccc(Sc2nccnc2N2CCCC(C(=O)NCc3cccc(Cl)c3)C2)c1` (centres undefined) yielded an RP-LC retention time of 1180 s.

As for `CCc1nn2c(N3CCN(c4ccccn4)CC3)cc(C)nc2c1-c1ccccc1`, the RP-LC retention time came to 670 s.

On to `COc1ncc(C(=O)Nc2ccc(Cl)cc2)c(C)n1`, for which the RP-LC retention time stood at 786 s.

Turning to `COc1ccc(C2(C(=O)N3CCC4(CC3)N(CC3CC3)C(=O)CS4=O)CC2)cc1` (centres undefined), the RP-LC retention time worked out at 677 s.

`O=C(NCc1cc(F)ccc1F)C1CCc2nc(N3CCCCC3)ncc2C1` (centres undefined) came in with an RP-LC retention time of 743 s.

For the compound `O=S(=O)(c1ccc2nc(N3CCN(c4ccc(F)cc4)CC3)ccc2c1)N1CCCCC1`, the RP-LC retention time turned out to be 1050 s.

The compound `CN(c1cccc(C(F)(F)F)c1)S(=O)(=O)c1cc2n(c1)CCCNC2=O` gave an RP-LC retention time of 759 s.

Compound `CCC(Sc1nc2cc(OC)c(OC)cc2c2nc(C)nn12)C(=O)NCc1ccco1` (centres undefined) registered an RP-LC retention time of 746 s.

`O=C(CSc1cc(NCc2ccccc2Cl)ncn1)NC1CCCC1` displayed an RP-LC retention time of 794 s.

In turn, `Cn1cc2c(N3CCCC3)nc(C(=O)NCCN3CCc4ccccc4C3)nc2n1` registered an RP-LC retention time of 523 s.

As for `COc1ccc(-c2cn3cccnc3n2)cc1NC(=O)c1cccc(Cl)c1`, the RP-LC retention time was 740 s.

The compound `COc1cccc(NC(=O)Cn2nc3c(Oc4cccc(F)c4)nccn3c2=O)c1` had an RP-LC retention time of 839 s.

In the case of `CC(C)CCNC(=O)Cn1nc2c3cc(-c4ccc(F)cc4)nn3ccn2c1=O`, the RP-LC retention time amounted to 876 s.

In turn, `O=S(=O)(NCc1cccnc1-c1ccc(F)cc1)c1ccc(Br)cc1` had an RP-LC retention time of 801 s.

Turning to `O=C(c1ccc(OCC2CCCN(C(=O)c3ccc(F)c(F)c3)C2)cc1)N1CCOCC1` (centres undefined), the RP-LC retention time is 801 s.

Consider `CN(CC1CCOCC1)C(=O)Nc1cc(F)cc(F)c1`, for which the RP-LC retention time was 754 s.

`COC(=O)c1nnn(-c2nonc2N)c1CN1CCN(c2ccccn2)CC1` returned an RP-LC retention time of 578 s.

As for `O=C(c1ccccc1Br)N1CCc2nc(-c3ccc(F)cc3)ncc2C1`, the RP-LC retention time was found to be 1010 s.

As for `CCOC(=O)C1=C(CN(C)Cc2ccccc2)NC(=O)NC1c1ccc(Cl)cc1` (centres undefined), the RP-LC retention time was determined as 698 s.

`CCS(=O)(=O)N1CCCC(c2nc(C(C)C)no2)CCNC(=O)CC1` (centres undefined) registered an RP-LC retention time of 686 s.

On to `CC(C)OC(=O)COC(=O)c1cn(-c2cccc(F)c2)c(=O)c2ccccc12`, for which the RP-LC retention time came to 1110 s.

Turning to `CC(=O)c1ccc(Oc2ccccc2)cc1`, the RP-LC retention time came to 920 s.

The compound `COc1ccc(NS(=O)(=O)c2cc3c(s2)CCN(C(=O)C2CC2)C3)cc1` gave an RP-LC retention time of 774 s.

In the case of `COc1ccc(C(=O)N(C)CC2(C)CCOCC2)cc1OC`, the RP-LC retention time worked out at 677 s.

In turn, `CCn1cc2c3c(cccc31)CN(C(=O)Nc1cccc(Cl)c1F)CC2` came in with an RP-LC retention time of 1060 s.

With `Cc1cc(C)cc(NC(=O)C2CCN(S(=O)(=O)c3cc(-c4noc(C)n4)cs3)CC2)c1`, the RP-LC retention time was 953 s.

In turn, `Cc1cccc(-c2nc3nc(C)cc(N(CCO)Cc4ccccc4)n3n2)c1` showed an RP-LC retention time of 815 s.

`O=C(NCCc1ccco1)c1nc(Nc2ccc(F)cc2)c2ccccc2n1` returned an RP-LC retention time of 784 s.

In turn, `Cc1ccc(NC(=O)Cn2cccc2-c2nnc(C3CCC3)o2)cc1C` displayed an RP-LC retention time of 985 s.

Turning to `COc1ccc(C2CC(=O)N(c3ccc(C)c(C)c3)C(=O)C2)cc1OC`, the RP-LC retention time was found to be 893 s.

`O=C(Cc1c(F)cccc1Cl)NC1CCN(c2cc(-c3cccs3)[nH]n2)C1` (centres undefined): the RP-LC retention time stood at 747 s.

As for `CC(C)CNC(=O)C1CC(=O)N(c2ccc3c(c2)CCN3C(=O)C2CC2)C1` (centres undefined), the RP-LC retention time is 698 s.

With `CCC(=O)Nc1ccc(CCc2nc3ccc(C(=O)NCCC(C)C)cc3[nH]2)cc1`, the RP-LC retention time was 645 s.

In turn, `CN(CC(=O)N1CCN(c2cccc(Cl)c2)CC1)S(=O)(=O)c1c[nH]c(C(=O)N2CCCC2)c1` yielded an RP-LC retention time of 834 s.

Turning to `CC1CCN(C(=O)C2CCCN(c3ccnc(-c4ccc(F)cc4)n3)C2)CC1` (centres undefined), the RP-LC retention time came out at 706 s.

As to `O=C(c1cc(-c2ccco2)on1)N1CCC(Oc2nc3ccccc3s2)CC1`, the RP-LC retention time was found to be 1030 s.

As for `CC(C)(C)c1ccc(CN2CCC(OC3CCN(C4CCCC4)C3=O)CC2)cc1` (centres undefined), the RP-LC retention time was 758 s.

As to `C=Cc1ccc(COC(=O)C2=CN(CC)S(=O)(=O)N=C2C)cc1`, the RP-LC retention time is 1030 s.

`CC1Oc2ccccc2OC1C(=O)Nc1sc2c(c1C#N)CCCC2` (centres undefined) registered an RP-LC retention time of 1120 s.

As to `O=C(CN1C(=O)NC2(CCCCC2)C1=O)Nc1cc(F)ccc1F`, the RP-LC retention time came to 779 s.

With `CCn1nccc1C(=O)N1CCN(C(=O)N2C[C@H]3C[C@H](C2)[C@H]2CCCC(=O)N2C3)CC1`, the RP-LC retention time was determined as 609 s.

`CCOC(=O)C(=O)Nc1ccc(SCc2nnc(-c3ccccc3C)o2)cc1` registered an RP-LC retention time of 950 s.

Regarding `COCc1noc(CC2CCOC3(CCN(C(=O)C4(c5ccccc5)CC4)CC3)C2)n1` (centres undefined), the RP-LC retention time is 820 s.

Compound `CCOc1ccc(S(=O)(=O)N2CCC3(CCC(CN4CCN(C)CC4)O3)CC2)cc1` (centres undefined) showed an RP-LC retention time of 611 s.

Compound `CC(=O)Nc1ccc(C(=O)NC2CCN(c3cc(-c4cccs4)[nH]n3)C2)cc1` (centres undefined) displayed an RP-LC retention time of 641 s.

Consider `CCn1nccc1C(=O)N1CCCC1c1ccc(C)cc1` (centres undefined), for which the RP-LC retention time came out at 890 s.

Regarding `Cn1ncc2c(Nc3cccc(Cl)c3)nc(N3CCN(C4CCCCC4)CC3)nc21`, the RP-LC retention time was 751 s.

`Cc1ccc(CNC(=O)c2ccc3nn(CC(=O)NCCC4=CCCCC4)c(=O)n3c2)cc1` registered an RP-LC retention time of 857 s.

As for `COc1ccc(NC(=O)c2cc(C)n3nc(C)cc3n2)c(C)c1`, the RP-LC retention time was determined as 1040 s.

For the compound `COc1cc(CC(=O)N2CCc3cc(-c4ccno4)ccc32)cc(OC)c1`, the RP-LC retention time amounted to 921 s.

Compound `Cc1nc(C)c(C(=O)N2CCC(c3noc(-c4cnccn4)n3)C2)s1` (centres undefined) showed an RP-LC retention time of 632 s.

Regarding `CC(NC(=O)c1ccc2c(c1)nc1n2CCN(Cc2ccccc2)C1=O)c1cccnc1` (centres undefined), the RP-LC retention time was 616 s.

As for `NC(=O)c1oc2ccccc2c1NC(=O)c1cc(=O)c2ccccc2o1`, the RP-LC retention time turned out to be 805 s.

As for `CCc1nnc2cc(N3CCN(C(=O)c4ccc(C(C)C)cc4)CC3)cnn12`, the RP-LC retention time was found to be 731 s.

Consider `COc1ccc(OC)c(S(=O)(=O)N2CCOc3ccc(NC(=O)C4CC4)cc3C2)c1`, for which the RP-LC retention time came to 823 s.

`Cn1c(=O)sc2cc(S(=O)(=O)N3CCC(C(=O)Nc4ccc(Cl)cc4)CC3)ccc21` showed an RP-LC retention time of 926 s.

Turning to `CC(C)(C)C(=O)N1CCC(C(=O)N[C@@H]2CCCC[C@H]2NC(=O)c2ccc(F)cc2)CC1`, the RP-LC retention time came out at 698 s.

`COc1cn(CC(=O)NCc2ccccc2Cl)c(CO)cc1=O` showed an RP-LC retention time of 564 s.

Turning to `C[C@@]1(O)CCN(Cc2cccc(C#N)c2)C[C@H]1N1CCCC1`, the RP-LC retention time was 541 s.

The compound `Cc1cc(C)c(NC(=O)Cn2nc3c4ccccc4ncn3c2=O)c(C)c1` gave an RP-LC retention time of 671 s.

The compound `O=C(CC1CCCCC1)N1CCN(c2nc(CN3CCCCC3)cs2)CC1` yielded an RP-LC retention time of 675 s.

Consider `Cn1c(=O)c(N2CCN(C(=O)c3cccc(F)c3)CC2)nc2ccccc21`, for which the RP-LC retention time amounted to 864 s.

In turn, `O=C(Cn1nc2nc(N3CCCC3)ccn2c1=O)Nc1ccc2c(c1)OCO2` returned an RP-LC retention time of 647 s.

Compound `COc1cc(OC)cc(-c2noc(-c3cn(C)c4ccc(C)cc4c3=O)n2)c1` displayed an RP-LC retention time of 894 s.

`O=C(Cn1nc2n(c1=O)CCCC2)Nc1cccc(Cl)c1`: the RP-LC retention time is 662 s.

`Cc1nc2cc(-c3noc(COc4ccc(F)cc4)n3)ccc2o1` registered an RP-LC retention time of 994 s.

Regarding `Cn1c(=O)c(C(=O)N2CCCC2)nc2ccccc21`, the RP-LC retention time is 622 s.

Compound `COc1ccc(C(=O)N2CCN(c3cc(-c4cccs4)[nH]n3)CC2)c(OC)c1` showed an RP-LC retention time of 739 s.

The compound `CCOc1ccc2nc(NC(=O)Cn3nc(C(=O)N4CCCCC4)c4ccccc43)sc2c1` gave an RP-LC retention time of 944 s.
